Measurements: patent publication US6774121B1, “Phospholipid prodrugs of anti-proliferative drugs” (D-Pharm, Ltd., priority 1999, dated 2004)
Values joined by “and” are separate entries in the source; they are usually repeats but may differ in a detail not shown here. Equal values may be shown once. Read-outs that look alike come from different tables or passages of the source.

How the values were obtained:
[1] = system: human leukemia cell line CCRF-CEM (CEM); test: MTT cell growth inhibition, CEM cells (Example 4); type: cell-based; settings: Homo sapiens, CCRF-CEM; 72 hours, MTT assay; read-out: EC50, nMol CEM
Procedure: A series of methotrexate derivatives were screened for their inhibitory effect on cell growth. Three tumor cell lines were used for this screen: i) human leukemia cell line CCRF-CEM which is MTX-sensitive (herein denoted as CEM), ii) a mutant of CEM cell line which is MTX-resistant due to a mutation in the RFC (herein denoted as CEM-MTX; provided by Dr. […], Technion, Israel), and iii) rat C6 glioma cell line. Cells were seeded at a density of 10^4 cells/ml in RPMI medium supplemented with 10% FCS in 96 well plates. The cultured cells were incubated, during their linear growth phase, in the presence and absence of various concentrations of MTX derivatives. The tested compounds were prepared as 1 mM stock in absolute ethanol or DMSO and were diluted into the medium. The highest vehicle presence in the assay was 5% of the vehicle. After 72 hours at 37° C. the cytotoxic effect on the cells was estimated by using the colorimetric MTT assay (Mosmann (1983) J. Immunol Methods 65: 55-63) that measures mitochondrial reductase activity and serves for quantitative assessment of cellular viability. […] The EC50 values were calculated from dose response curves for each tested compound.

[2] = system: CEM-MTX (MTX-resistant mutant of CEM, mutation in the RFC); test: MTT cell growth inhibition, MTX-resistant CEM-MTX cells (Example 4); type: cell-based, human; settings: Homo sapiens; 72 hours, MTT assay; read-out: EC50, nMol CEM-MTX
Procedure: A series of methotrexate derivatives were screened for their inhibitory effect on cell growth. Three tumor cell lines were used for this screen: i) human leukemia cell line CCRF-CEM which is MTX-sensitive (herein denoted as CEM), ii) a mutant of CEM cell line which is MTX-resistant due to a mutation in the RFC (herein denoted as CEM-MTX; provided by Dr. Y. Assraf, Technion, Israel), and iii) rat C6 glioma cell line.
Cells were seeded at a density of 10^4 cells/ml in RPMI medium supplemented with 10% FCS in 96 well plates. The cultured cells were incubated, during their linear growth phase, in the presence and absence of various concentrations of MTX derivatives. The tested compounds were prepared as 1 mM stock in absolute ethanol or DMSO and were diluted into the medium. The highest vehicle presence in the assay was 5% of the vehicle. After 72 hours at 37° C. the cytotoxic effect on the cells was estimated by using the colorimetric MTT assay (Mosmann (1983) J. Immunol Methods 65: 55-63) that measures mitochondrial reductase activity and serves for quantitative assessment of cellular viability. Drug concentration required for inhibiting the growth of 50% of cell population in culture over a 72 hour period incubation, is defined as EC50.
The EC50 values were calculated from dose response curves for each tested compound.

[3] = system: Friend cells (an erythroleukemic cell line); test: MTT cytotoxicity, Friend cells (Example 5); type: cell-based; settings: 72 hour
Procedure: The toxicity of methotrexate derivatives of the invention (DP-MTX) was evaluated in an additional cell-culture system. The doses required to inhibit the growth of cultured Friend cells (an erythroleukemic cell line) by 50%, over a 72 hour period (ED50), were determined using a mitochondrial viability (MTT) endpoint assay.
Friend cells were seeded at a density of 10^4 cells/ml in RPMI medium supplemented with 10% FCS in 96 well plates. The cultured cells were incubated, during their linear growth phase, in the presence and absence of various concentrations of MTX derivatives. After 72 hours at 37° C., cell viability was estimated by using the colorimetric MTT assay.

[4] = system: MTX-resistant mutant cells, CEM-MTX; test: MTT cytotoxicity with and without Leucovorin, CEM-MTX cells (Example 6); type: cell-based; settings: Homo sapiens, 72 hours
Procedure: Leucovorin is a reduced folate, used in chemotherapy with high doses of methotrexate for ‘rescue’ of host from toxicity.
Wild type human leukemia CEM cells or the MTX-resistant mutant cells, CEM-MTX, were plated into 96 well plates containing RPMI, 10% FCS at a concentration of 5×10^4 cells/ml. […] Leucovorin, at a final concentration of 10 μM, was added to some of the plates as indicated. The plates were incubated for 72 hours (37° C., 5% CO2) before being assayed for viability using the colorimetric MTT assay (Mosmann (1983) J. Immunol Methods 65: 55-63).

CEM = test: MTT cytotoxicity on tumor cell lines, CEM (Example 8); type: cell-based; settings: CCRF-CEM, T-cell ALL (human), 72 hours
Procedure: (§1) Cell viability was analyzed after 72 hours incubation (37° C., 5% CO2) using the colorimetric MTT assay (Mosmann (1983) J. Immunol Methods 65: 55-63).

C6 = test: MTT cytotoxicity on tumor cell lines, C6 (Example 8); type: cell-based; settings: C6, Glioma (rat), 72 hours
Procedure: as §1

Jurkat = test: MTT cytotoxicity on tumor cell lines, Jurkat (Example 8); type: cell-based; settings: Homo sapiens, T-cell lymphoma, 72 hours
Procedure: as §1

Du148 = test: MTT cytotoxicity on tumor cell lines, Du148 (Example 8); type: cell-based; settings: Du148, Prostate cancer (human), 72 hours
Procedure: as §1

J774 = test: MTT cytotoxicity on tumor cell lines, J774 (Example 8); type: cell-based; settings: J774, Myeloma (mouse), 72 hours
Procedure: as §1

N87 = test: MTT cytotoxicity on tumor cell lines, N87 (Example 8); type: cell-based; settings: N87, Gastric carcinoma (human), 72 hours
Procedure: as §1

A431 = test: MTT cytotoxicity on tumor cell lines, A431 (Example 8); type: cell-based; settings: A-431, A431, Epidermoid carcinoma (human), 72 hours
Procedure: as §1

T47D = test: MTT cytotoxicity on tumor cell lines, T47D (Example 8); type: cell-based; settings: Mammary cancer (human), 72 hours
Procedure: as §1

L1210 = test: MTT cytotoxicity, parent L1210 cells (Example 9); type: cell-based; settings: Mus musculus
[5] = system: RFC-mediated MTX-resistant cell line (L1210-MTX); test: MTT cytotoxicity, L1210-MTX cells (Example 9); type: cell-based; settings: Mus musculus
L1210 cells = test: Survival of pre-treated mice after L1210 tumor cell implantation; type: in vivo, mouse; settings: pre-treatment 3 mg/Kg or equivalent i.p. every other day for 21 days
Procedure: Protection against tumor growth was examined in mice pretreated with MTX or DP-MTX-71.
At the end of this regimen, the mice were injected with 1×10^6 L1210 cells into the peritoneum. The animals were then monitored for viability for 12 days subsequent to the injection of the tumor cells.

Compound: CN(Cc1cnc2nc(N)nc(N)c2n1)c1ccc(C(=O)N[C@@H](CCC(=O)O)C(=O)O)cc1 [MTX, Methotrexate]
- EC50 [1]: 21 nM
- EC50 [2]: 2540 nM
- ED50 [3]: 10 nmol
- EC50 ([4]; 10 μM Leucovorin, read-out: EC50, nMol + 10 μM Leucovorin): 20 ± 12.8 µM
- EC50 ([4]; read-out: EC50, nMol No Leucovorin): 2.54 ± 0.224 µM
- EC50 (CEM): 21 nM
- EC50 (C6): 46 nM
- EC50 (Jurkat): 21 nM
- EC50 (Du148): 29 nM
- EC50 (J774): 112 nM
- EC50 (N87): 13.5 µM
- EC50 (A431): 850 nM
- EC50 (T47D): 50 µM
- EC50 (L1210): 14 nM
- EC50 [5]: 1080 nM
- Surviving mice (L1210 cells; 9 days after tumor implantation): 6/6
- Surviving mice (L1210 cells; 10 days after tumor implantation): 4/6
- Surviving mice (L1210 cells; 11 days after tumor implantation): 3/6
- Surviving mice (L1210 cells; 12 days after tumor implantation): 2 and 2/6
